Assay results from patent publication US9211305B2, “Pharmaceutical compositions with glycosaminoglycans and use thereof in the treatment of chronic ulcers” (LABORATORIOS FARMACEUTICOS ROVI S.A., priority 2008, dated 2015).
Where “and” joins values, the source holds several entries; their conditions need not be identical. Equal entries are not always repeated. Entries after “also recorded” stand apart in the source; their conditions may differ.

Experiments:
diabetic wistar rat [1] = assay: Example 3: percentage of ulcer healing in diabetic rats, SC route; assay type: in vivo; conditions: 0.22 mg/rat SC, one rat
Protocol: To perform the present embodiment, doses of 45 mg/kg of streptozocin (STZ) were administered by intramuscular route to make a batch of 10 rats diabetic (Andrades Ja et al. Engineering, expression, and renaturation of a collagen-targeted human bFGF fusion protein. Growth Factors. 2001; 18(4):261-75).
(§1) Male wistar rats with an average weight of 250 g per rat were used, to which a dose of 11.25 mg STZ per rat was administered by means of the intramuscular administration of 100 μL in the left paw of each rat.
(§2) Diabetes was induced in 6 of all the rats and 4 of them were left as a non-diabetic control, to test the result of the healing of chronic ulcers not caused by diabetes.
Sweetened water (350 mg/dL) was administered to the rats for three days and glucose measurements were performed with a glucometer every day to verify that the rats were indeed diabetized. For this reason, before the administration and at time 4 days after the administration of streptozocin, a drop of blood was extracted from the rat tail vein for the subsequent quantification of glycemia and see whether they were diabetic before starting the ulceration assay.
Once the rats are ready, 2 ulcers with a diameter of 1 cm each were made on them using a scalpel. […]

[2] = system: C57BL/KsJ-db/db diabetic mouse; assay: Example 4: wound healing in genetically diabetic mouse, subcutaneous route; assay type: in vivo; conditions: for histopathological Grade / histopathological Score: sacrifice day 21, doses as in the 18th table
Protocol: The genetically diabetic mouse develops resistance to insulin and hyperglycemia similar to those observed in adult diabetes. The total thickness wounds made in the back of these animals takes longer in forming the granulation tissue and in closing than the same wounds caused in non-diabetic animals.
(§3) On the first day of the assay, the animals were anesthetized (ketamine+xylazine, 100+10 mg/kg, i.m.). The back of the animal was shaved, the area was cleaned with disinfectant and the location of the wound was marked by means of a template to make its position the same in all the animals.
(§4) The wound was made by means of a circular incision with a diameter of approximately 1.5 cm, the skin of the mid-dorsal area being removed. A semipermeable dressing was subsequently placed on the wound. 1 mL/animal of physiological serum was administered by i.p. route after the intervention.
(§5) The wound area was calculated as the percentage of reduction thereof to evaluate the degree of curing thereof, by means of the standardized formula: […]
(§6) The measurement performed immediately after the intervention or incision was used as the baseline area. On the following day and for a total of 14 days, the assigned treatments were administered to the animals.
On the following day and for a total of 14 days, 10 mL/kg were administered to the animals by subcutaneous route in the back of the animal, avoiding the area of the wound.
The follow-up of the animals was performed up to a period of 21 days (average time necessary for the healing of the wounds in this animal model). The assessment was performed by means of digital photography of the wound and subsequent image analysis.
(§7) The animals were sacrificed on day 21 of the study and the area of the skin where the wound was caused was stored in formol to perform a histopathological evaluation (hematoxylin-eosin staining).
(§8) Each section was given a histological score in the grade 1 to grade V range, where I means uncured wound and V means completely epithelialized wound. The score is based on the degree of cell invasion, the formation of granulation tissue, vascularization and epithelialization.

factor Xa = assay: Anti-factor Xa activity; assay type: biochemical
diabetic wistar rat [3] = assay: Example 1: ulcer area reduction in streptozocin-diabetized rats, subcutaneous route; assay type: in vivo
Protocol: To perform the present example, doses of 45 mg/kg of streptozocin (STZ) were administered by intramuscular route to make a batch of 8 rats diabetic (Andrades Ja et al. Engineering, expression, and renaturation of a collagen-targeted human bFGF fusion protein. Growth Factors. 2001; 18(4):261-75).
as §1
Sweetened water (350 mg/dL) was administered to all the rats for three days and glucose measurements were performed with a glucometer every day to verify that the rats were indeed diabetized. For this reason, before the administration and at time 4 days after the administration of streptozocin, a drop of blood was extracted from the rat tail vein for the subsequent quantification of glycemia and to see whether they were diabetic before starting the ulceration assay.
Once the rats were diabetized, 4 ulcers with a diameter of 1 cm each were made on them using a scalpel. An anesthesia/analgesia protocol with Ketamine/xylazine was followed according to the recommendations of the book: “Handbook of laboratory animal management and welfare”:
The ulcers were treated with water and cleaned for 9 days after the ulceration.
The administrations of bemiparin were performed by means of a bemiparin solution by subcutaneous route (100 μL) for the treatment of the ulcers.
The diameter of the ulcer was quantified by means of tracing the ulcer onto a transparency to see the progress of the healing.

non-diabetic rats = assay: Example 3: percentage of ulcer healing in non-diabetic rats, SC route; assay type: in vivo, Wistar rat; conditions: for percentage of healing of day 9 with respect to day 1, Average: Group 1, non-diabetic, 217 IU/rat SC
Protocol: as §2
Once the rats are ready, 2 ulcers with a diameter of 1 cm each were made on them using a scalpel. An anesthesia/analgesia protocol with ketamine/xylazine was followed according to the recommendations of the book: “Handbook of laboratory animal management and welfare”:
The ulcers were treated with water and cleaned for 9 days after the ulceration. A corresponding solution was administered to each group by SC route (100 μL) for the treatment of the ulcers. The diameter of the ulcer was quantified by means of tracing the ulcer onto a transparency to see the progress of the healing.

[4] = system: C57BL/KS.Cg-m Lepr^db+/+m mouse; assay: Example 5: wound healing in non-diabetic mouse, subcutaneous route; assay type: in vivo
Protocol: The C57BL/KS.Cg-m Lepr^db+/+m mouse is the non-diabetic analog of the mouse used in the previous example.
as §3, §4, §5, §6
On the following day and for a total of 14 days, 10 ml/kg were administered to the animals by subcutaneous route in the back of the animal, avoiding the area of the wound.
The follow-up of the animals was performed up to a period of 21 days. The assessment was performed by means of digital photography of the wound and subsequent image analysis.
as §7, §8

[5] = in vivo; cited from earlier work
[6] = day 21, subcutaneous 14 days, fondaparinux 1 mg/kg, bemiparin 1000 IU Xa/kg
[7] = subcutaneous 14 days, sacrifice day 21, doses as in the 23rd table

## CO[C@H]1O[C@H](COS(=O)(=O)O)[C@@H](O[C@@H]2O[C@@H](C(=O)O)[C@@H](O[C@H]3O[C@H](COS(=O)(=O)O)[C@@H](O[C@@H]4O[C@H](C(=O)O)[C@@H](O[C@H]5O[C@H](COS(=O)(=O)O)[C@@H](O)[C@H](O)[C@H]5NS(=O)(=O)O)[C@H](O)[C@H]4O)[C@H](OS(=O)(=O)O)[C@H]3NS(=O)(=O)O)[C@H](O)[C@H]2OS(=O)(=O)O)[C@H](O)[C@H]1NS(=O)(=O)O [Fondaparinux]
Diabetic wistar rat [1]
  percentage of healing of day 9 with respect to day 1, Average: 50.22%
Diabetic wistar rat [1]; single ulcers
  percentage of healing of day 9 with respect to day 1: A 50.99%; also recorded: B 49.55%
[2]; [6]
  percentage of healing of the wound: 96%
[2]; subcutaneous 14 days
  histopathological Grade: III (7-9 Moderately thick granulation tissue. It can vary from being dominated by inflammatory cells to greater presence of fibroblasts and collagen deposition, extensive neovascularization, minimum to moderate epithelial migration.)
  histopathological Score: 7.2

## Bemiparin
Factor Xa
  anti-Xa/anti-IIa ratio: greater than 8
Diabetic wistar rat [3]; 108 IU rat, subcutaneous, ulcer E excluded
  percentage of area reduction of day 9 with respect to day 1, Average: 24.39 ± 7.47%
Diabetic wistar rat [3]; 217 IU rat compared with 108 IU rat
  macroscopic healing process: macroscopically much better
Diabetic wistar rat [3]; 217 IU rat, subcutaneous
  percentage of area reduction of day 9 with respect to day 1, Average: 27.35 ± 7.25%
Diabetic wistar rat [3]; single ulcers, 217 IU rat, subcutaneous
  percentage of area reduction of day 9 with respect to day 1: 26.2% and 20.14% and 25.64% and 37.43%
non-diabetic rats; Group 1 (217 IU/rat) compared with the rest of groups
  macroscopic healing process: macroscopically much better
non-diabetic rats
  percentage of healing of day 9 with respect to day 1, Average: 71.82%
non-diabetic rats; listed as bemiparin
  percentage of healing of day 9 with respect to day 1, Average: 71.82%
[2]; [6]
  percentage of healing of the wound: complete curing
[2]; from day 18, subcutaneous 1000 IU Xa/kg
  percentage of healing of the wound: 98%
[2]; subcutaneous 1000 IU Xa/kg
  day on which the wound closes: 18 days
[2]; subcutaneous 14 days
  histopathological Grade: IV (10-12 Thick and vascular granulation tissue dominated by fibroblasts and extensive collagen deposition, the epithelium covers the wound partially or completely.)
  histopathological Score: 11.5
[2]; subcutaneous, after the fifth day of treatment
  granulation tissue in the wound, macroscopic: a bed covered with granulation tissue
[4]; subcutaneous 1000 IU Xa/kg
  healing rate with respect to the control: does not improve the healing rate
[4]; [7]
  histopathological Grade: III (7-9 Moderately thick granulation tissue. It can vary from being dominated by inflammatory cells to greater presence of fibroblasts and collagen deposition, extensive neovascularization, minimum to moderate epithelial migration.)
  histopathological Score: 8
[5]
  Plasma Half-Life: 5.3 h
  Plasma Half-Life Range: 5.2 to 5.4 h
